# Reference: patent US10195218B2, “Crystallization method and bioavailability” (GRUNENTHAL GMBH, priority 2016, dated 2019)
# Where two headings read alike, the source gives them in different places.
# Key:
# [1] = Aqueous solubility at room temperature; format: physicochemical; conditions: water
# [2] = Dog PK study: serum concentrations of zoledronic acid after IV or oral (gelatin capsule, enteric or non-enteric coated, with or without excess coformer, micronized) dosing, LC/MS/MS; format: in vivo; conditions: beagle, Leg 1, IV 0.05 mg/kg, saline solution, time 0 hour (pre-dose), read-out: Average serum concentration of 5 dogs
# Protocol: Surgical catheters (jugular vein and intraduodenum) were implanted to the animals prior to the study. Beagle dogs from Marshall Farms, N.Y., USA, weighing from (9-12 kg) were used in this study. Surgical catheters (jugular vein) were implanted prior to the study.
# IV Administration: The dose volume of each dog was adjusted based upon the average weight of the dog. • ii.
# Prior to dosing, all dogs received a 20 mL dose of citric acid (24 mg/mL in water) to lower the pH of their stomach. After dosing capsules or IV, all dogs received additional 6.25 mL citric acid solution (24 mg/mL in water) as a rinse.
# Group A, (IV administration). Group members, designated IV doses are listed below:
# Group B (oral administration): Group designations and oral doses are listed below:
# Group C (oral administration): Group designations and oral doses are listed below:
# Group D, (15 min IV infusion): Group members, designated IV doses are listed below:
# Group E, (oral administration): Group members, designated IV doses are listed below:
# Group F, (15 min IV infusion): Group members, designated IV doses are listed below: […]
# [3] = cited from earlier work
# [4] = cited from earlier work; remark: listed apart in the source
# [5] = Rat PK study: plasma concentrations of zoledronic acid after IV, oral gavage or intraduodenal (ID) dosing, LC/MS/MS; format: in vivo, Sprague-Dawley Rats
# Protocol: These studies were conducted on rats and dogs as they are suitable animal models for zoledronic acid. This can be attributed to the fact that both animals have historically been used in the safety evaluation and PK screening studies and are recommended by appropriate regulatory agencies. […] Pure zoledronic acid and zoledronic acid complexes prepared by the methods in this invention were delivered to the rats and dogs through IV or oral routes. Additional tests included ID administration in rats and administration of enteric coated capsules in dogs. All compounds delivered were well tolerated by the animals with no adverse events or physical abnormalities noticed. […] USA. Surgical catheters (jugular vein and intraduodenum) were implanted to the animals prior to the study. […] Surgical catheters (jugular vein) were implanted prior to the study. […] Zoledronic acid and its complex formulations were administered through IV, oral and ID. […] The dose of each rat was calculated on a per rat basis (not on an average weight of all the rats in the lot). • ii. Oral gavage administration: solid suspensions were administered. The dose of each rat was calculated on a per rat basis (not on an average weight of all the rats in the lot). […] Duodenal cannula administration: solid suspensions were administered. The dose of each rat was calculated on a per rat basis (not on an average weight of all the rats in the lot). […] Group I (IV administration). Group members, designated IV doses are listed below IV comparator group, was conducted to calculate MAT (mean absorption time) and ka (absorption rate constant) for the oral groups. Group II (oral gavage): Group designations and oral doses are listed below: Group III (ID administration): Group designations and oral doses are listed below: Group IV (oral gavage): Group designations and oral doses are listed below: […] Samples were thawed on the day of analysis and the amount of zoledronic acid in the samples was quantified by analyzed by LC/MS/MS method.
# [6] = molar concentration of the complex
# [7] = ID (duodenal cannula) 5 mg/kg zoledronic acid equivalent, PEG 400, time 8 hour
# [8] = ID (duodenal cannula) 5 mg/kg zoledronic acid equivalent, PEG 400, time 24 hour
# [9] = PO gavage 5 mg/kg zoledronic acid equivalent, PEG 400, time 24 hour (Table 1)
molecule,measurement,setting,value
"O=P(O)(O)C(O)(Cn1ccnc1)P(=O)(O)O [ZA monohydrate, Zoledronic acid monohydrate, reference compound]",solubility,"[1]; molar concentration of the complex, read-out: Aqueous solubility, mMol/L (complex)",5.41 mmol/L
same,solubility,"[1]; read-out: Aqueous solubility, Conc.",1570 µg/mL
NCCCCC(N)C(=O)O.O.O=P(O)(O)C(O)(Cn1ccnc1)P(=O)(O)O [ZA:DL-Lysine monohydrate],"Aqueous solubility, Conc.",[1],13900 µg/mL
same,"Aqueous solubility, mMol/L (complex)",[1]; [6],31.86 mmol/L
NCCCCC(N)C(=O)O.O.O.O=P(O)(O)C(O)(Cn1ccnc1)P(=O)(O)O [ZA:L-Lysine dihydrate],"Aqueous solubility, Conc.",[1],8220 µg/mL
same,"Aqueous solubility, mMol/L (complex)",[1]; [6],18.09 mmol/L
"O=P(O)(O)C(O)(Cn1ccnc1)P(=O)(O)O [Zoledronic acid, (1-hydroxy-2-imidazol-1-yl-1-phosphono-ethyl)phosphonic acid]",concentration at 0 h,[2],0 ng/mL
same,oral bioavailability,[3]; according to FDA Summary Basis of Approval,approximately 1%
same,gastric and intestinal irritation,[3]; in vivo,severe gastric and intestinal irritations
same,solubility in 0.1 N HCl solution,[4]; 0.1 N HCl solution,sparingly soluble
same,solubility in 0.1 N NaOH,[4]; 0.1 N NaOH,freely soluble
same,solubility in various organic solvents,[4]; various organic solvents,practically insoluble
same,solubility in water,[4]; water,sparingly soluble
"Zoledronic, L-lysine, and water complex",Average plasma concentration of 3 Rats,"[5]; ID (duodenal cannula) 5 mg/kg zoledronic acid equivalent, PEG 400, time 0.25 hour",91.21 ng/mL
same,Average plasma concentration of 3 Rats,"[5]; ID (duodenal cannula) 5 mg/kg zoledronic acid equivalent, PEG 400, time 1 hour",26.53 ng/mL
same,Average plasma concentration of 3 Rats,"[5]; ID (duodenal cannula) 5 mg/kg zoledronic acid equivalent, PEG 400, time 4 hour",0.74 ng/mL
same,Average plasma concentration of 3 Rats,[5]; [7],0.00 ng/mL
same,Average plasma concentration of 3 Rats,[5]; [8],0.00 ng/mL
same,Average plasma concentration of 3 Rats,"[5]; PO gavage 5 mg/kg zoledronic acid equivalent, PEG 400, time 0.25 hour (Table 1)",258.43 ng/mL
same,Average plasma concentration of 3 Rats,"[5]; PO gavage 5 mg/kg zoledronic acid equivalent, PEG 400, time 0.5 hour (Table 1)",249.82 ng/mL
same,Average plasma concentration of 3 Rats,"[5]; PO gavage 5 mg/kg zoledronic acid equivalent, PEG 400, time 1 hour (Table 1)",184.95 ng/mL
same,Average plasma concentration of 3 Rats,"[5]; PO gavage 5 mg/kg zoledronic acid equivalent, PEG 400, time 4 hour (Table 1)",28.70 ng/mL
same,Average plasma concentration of 3 Rats,"[5]; PO gavage 5 mg/kg zoledronic acid equivalent, PEG 400, time 8 hour (Table 1)",3.27 ng/mL
same,Average plasma concentration of 3 Rats,[5]; [9],0.00 ng/mL
"Zoledronic, Nicotinamide, and Water Complex",Average plasma concentration of 3 Rats,[5]; [7],0.00 ng/mL
same,Average plasma concentration of 3 Rats,[5]; [8],0.00 ng/mL
same,Average plasma concentration of 3 Rats,[5]; [9],0.00 ng/mL
